Legend:
duck salad = test: Test B flood test duck salad; type: in vivo, Heteranthera limosa
Procedure, shortened: (§1)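 Read-out is a visual response score from 0 (no effect) to 10 (complete control), assigned by comparison with untreated controls. Treatment was applied at the 2-leaf stage, and plants stayed in the greenhouse for twelve to sixteen days before scoring.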

surinam grass = test: Test B pre/postemergence surinam grass; type: in vivo, Brachiaria decumbens; settings: for B. signalgrass plant response rating: scale of 0 to 10 where 0 is no effect and 10 is complete control
Procedure, shortened: (§2)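 Test chemicals in a non-phytotoxic solvent mixture with surfactant were sprayed preemergence onto planted seeds and postemergence onto plants 2 to 18 cm tall (1- to 4-leaf stage). After twelve to sixteen days in a greenhouse, injury was visually rated against untreated controls from 0 (no effect) to 10 (complete control).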

velvetleaf = test: Test B pre/postemergence velvetleaf; type: in vivo, Abutilon theophrasti; settings: for Velvetleaf plant response rating: scale of 0 to 10 where 0 is no effect and 10 is complete control
Procedure, shortened: as §2

sugar beet = test: Test B pre/postemergence sugar beet; type: in vivo, Beta vulgaris; settings: for Sugarbeets plant response rating: scale of 0 to 10 where 0 is no effect and 10 is complete control
Procedure, shortened: as §2

purple nutsedge = test: Test B pre/postemergence purple nutsedge; type: in vivo, Cyperus rotundus; settings: for Nutsedge plant response rating: scale of 0 to 10 where 0 is no effect and 10 is complete control
Procedure, shortened: as §2

rice = test: Test B flood test rice; type: in vivo, Oryza sativa
Procedure, shortened: as §1

soybean = test: Test B pre/postemergence soybean; type: in vivo, Glycine max; settings: for Soybean plant response rating: scale of 0 to 10 where 0 is no effect and 10 is complete control
Procedure, shortened: as §2

bamyardgrass = test: Test B flood test barnyardgrass; type: in vivo, Echinochloa crus-galli
Procedure, shortened: as §1

cocklebur = test: Test B pre/postemergence cocklebur; type: in vivo, Xanthium strumarium; settings: for Cocklebur plant response rating: scale of 0 to 10 where 0 is no effect and 10 is complete control
Procedure, shortened: as §2

crabgrass = test: Test B pre/postemergence crabgrass; type: in vivo, Digitaria sanguinalis; settings: for Crabgrass plant response rating: scale of 0 to 10 where 0 is no effect and 10 is complete control
Procedure, shortened: as §2

wheat = test: Test B pre/postemergence wheat; type: in vivo, Triticum aestivum; settings: for Wheat plant response rating: scale of 0 to 10 where 0 is no effect and 10 is complete control
Procedure, shortened: as §2

corn = test: Test B pre/postemergence corn; type: in vivo, Zea mays; settings: for Corn plant response rating: scale of 0 to 10 where 0 is no effect and 10 is complete control
Procedure, shortened: as §2

blackgrass = test: Test B pre/postemergence blackgrass; type: in vivo, Alopecurus myosuroides; settings: for Blackgrass plant response rating: scale of 0 to 10 where 0 is no effect and 10 is complete control
Procedure, shortened: as §2

smallflower flatsedge = test: Test B flood test smallflower flatsedge; type: in vivo, Cyperus difformis
Procedure, shortened: as §1

wild oat = test: Test B pre/postemergence wild oat; type: in vivo, Avena fatua; settings: for Wild oats plant response rating: scale of 0 to 10 where 0 is no effect and 10 is complete control
Procedure, shortened: as §2

[1] = Rate 62 g/ha, flood test species, Pre-emergence, visual evaluation after twelve to sixteen days
[2] = Rate 125 g/ha, under heading Pre-emergence, flood test species, visual evaluation after twelve to sixteen days
[3] = Rate 250 g/ha, Pre-emergence, flood-test species, scale 0 to 10, 0 is no effect, 10 is complete control
[4] = Rate 500 g/ha, Pre-emergence, flood test species, scale 0 to 10 (0 no effect, 10 complete control)
[5] = Postemergence, Rate 125 g/ha, scale 0 to 10, 0 is no effect, 10 is complete control
[6] = Postemergence, Rate 250 g/ha, scale 0 to 10, 0 is no effect, 10 is complete control
[7] = Preemergence, Rate 62 g/ha, scale 0 to 10 (0 no effect, 10 complete control)
[8] = Rate 500 g/ha, Postemergence, scale 0 to 10, 0 no effect, 10 complete control

CC1CC1n1c(=O)on(C(=O)N(c2ccc(F)cc2)C(C)C)c1=O (stereo not shown) [Compound 371]
Plant response rating, Ducksalad (0 to 10 scale, 0 is no effect, 10 is complete control) (duck salad; [1]): 0
Ducksalad plant response rating (0 to 10 scale, 0 is no effect, 10 is complete control) (duck salad; [2]): 0
Ducksalad plant response rating (duck salad; [3]): 0
Ducksalad plant response rating (duck salad; [4]): 2
Plant response rating, B. signalgrass (surinam grass; [5]): 0
Plant response rating, B. signalgrass (surinam grass; [6]): 3
Plant response rating, B. signalgrass (surinam grass; [7]): 0
B. signalgrass plant response rating (0 to 10 scale, 0 is no effect, 10 is complete control) (surinam grass; Preemergence, Rate 125 g/ha): 2
B. signalgrass plant response rating (surinam grass; Preemergence, Rate 250 g/ha): 2
B. signalgrass plant response rating (surinam grass; Preemergence, Rate 500 g/ha): 4
B. signalgrass plant response rating (surinam grass; Rate 62 g/ha, Postemergence): 0
Plant response rating, B. signalgrass (surinam grass; [8]): 6
Plant response rating, Velvetleaf (velvetleaf; [5]): 0
Plant response rating, Velvetleaf (velvetleaf; [6]): 2
Plant response rating, Velvetleaf (velvetleaf; [7]): 0
Velvetleaf plant response rating (0 to 10 scale) (velvetleaf; Preemergence, Rate 125 g/ha): 4
Velvetleaf plant response rating (velvetleaf; Preemergence, Rate 250 g/ha): 5
Velvetleaf plant response rating (velvetleaf; Preemergence, Rate 500 g/ha): 6
Velvetleaf plant response rating (velvetleaf; Rate 62 g/ha, Postemergence): 0
Plant response rating, Velvetleaf (velvetleaf; [8]): 3
Plant response rating, Sugarbeets (sugar beet; [5]): 0
Plant response rating, Sugarbeets (sugar beet; [6]): 0
Plant response rating, Sugarbeets (sugar beet; [7]): 0
Sugarbeets plant response rating (0 to 10 scale) (sugar beet; Preemergence, Rate 125 g/ha): 6
Sugarbeets plant response rating (sugar beet; Preemergence, Rate 250 g/ha): 6
Sugarbeets plant response rating (sugar beet; Preemergence, Rate 500 g/ha): 10
Sugarbeets plant response rating (sugar beet; Rate 62 g/ha, Postemergence): 0
Plant response rating, Sugarbeets (sugar beet; [8]): 0
Plant response rating, Nutsedge (purple nutsedge; [5]): 0
Plant response rating, Nutsedge (purple nutsedge; [6]): 0
Plant response rating, Nutsedge (purple nutsedge; [7]): 0
Nutsedge plant response rating (0 to 10 scale) (purple nutsedge; Preemergence, Rate 125 g/ha): 0
Nutsedge plant response rating (purple nutsedge; Preemergence, Rate 250 g/ha): 5
Nutsedge plant response rating (purple nutsedge; Preemergence, Rate 500 g/ha): 9
Nutsedge plant response rating (purple nutsedge; Rate 62 g/ha, Postemergence): 0
Plant response rating, Nutsedge (purple nutsedge; [8]): 0
Plant response rating, Rice (0 to 10 scale, 0 is no effect, 10 is complete control) (rice; [1]): 0
Rice plant response rating (0 to 10 scale, 0 is no effect, 10 is complete control) (rice; [2]): 0
Rice plant response rating (rice; [3]): 0
Rice plant response rating (rice; [4]): 5
Plant response rating, Soybean (soybean; [5]): 1
Plant response rating, Soybean (soybean; [6]): 1
Plant response rating, Soybean (soybean; [7]): 0
Soybean plant response rating (0 to 10 scale) (soybean; Preemergence, Rate 125 g/ha): 0
Soybean plant response rating (soybean; Preemergence, Rate 250 g/ha): 0
Soybean plant response rating (soybean; Preemergence, Rate 500 g/ha): 2
Soybean plant response rating (soybean; Rate 62 g/ha, Postemergence): 1
Plant response rating, Soybean (soybean; [8]): 4
Plant response rating, Barnyardgrass (0 to 10 scale, 0 is no effect, 10 is complete control) (bamyardgrass; [1]): 0
Barnyardgrass plant response rating (0 to 10 scale, 0 is no effect, 10 is complete control) (bamyardgrass; [2]): 0
Barnyardgrass plant response rating (bamyardgrass; [3]): 0
Barnyardgrass plant response rating (bamyardgrass; [4]): 7
Plant response rating, Cocklebur (cocklebur; [5]): 0
Plant response rating, Cocklebur (cocklebur; [6]): 0
Plant response rating, Cocklebur (cocklebur; [7]): 0
Cocklebur plant response rating (0 to 10 scale) (cocklebur; Preemergence, Rate 125 g/ha): 0
Cocklebur plant response rating (cocklebur; Preemergence, Rate 250 g/ha): 0
Cocklebur plant response rating (cocklebur; Preemergence, Rate 500 g/ha): 0
Cocklebur plant response rating (cocklebur; Rate 62 g/ha, Postemergence): 0
Plant response rating, Cocklebur (cocklebur; [8]): 0
Plant response rating, Crabgrass (crabgrass; [5]): 4
Plant response rating, Crabgrass (crabgrass; [6]): 8
Plant response rating, Crabgrass (crabgrass; [7]): 8
Crabgrass plant response rating (0 to 10 scale) (crabgrass; Preemergence, Rate 125 g/ha): 10
Crabgrass plant response rating (crabgrass; Preemergence, Rate 250 g/ha): 10
Crabgrass plant response rating (crabgrass; Preemergence, Rate 500 g/ha): 10
Crabgrass plant response rating (crabgrass; Rate 62 g/ha, Postemergence): 3
Plant response rating, Crabgrass (crabgrass; [8]): 9
Plant response rating, Wheat (wheat; [5]): 0
Plant response rating, Wheat (wheat; [6]): 0
Plant response rating, Wheat (wheat; [7]): 0
Wheat plant response rating (0 to 10 scale) (wheat; Preemergence, Rate 125 g/ha): 0
Wheat plant response rating (wheat; Preemergence, Rate 250 g/ha): 2
Wheat plant response rating (wheat; Preemergence, Rate 500 g/ha): 4
Wheat plant response rating (wheat; Rate 62 g/ha, Postemergence): 0
Plant response rating, Corn (corn; [5]): 0
Plant response rating, Corn (corn; [6]): 0
Plant response rating, Corn (corn; [7]): 0
Corn plant response rating (0 to 10 scale) (corn; Preemergence, Rate 125 g/ha): 0
Corn plant response rating (corn; Preemergence, Rate 250 g/ha): 2
Corn plant response rating (corn; Preemergence, Rate 500 g/ha): 7
Corn plant response rating (corn; Rate 62 g/ha, Postemergence): 0
Plant response rating, Corn (corn; [8]): 1
Plant response rating, Blackgrass (blackgrass; [5]): 2
Plant response rating, Blackgrass (blackgrass; [6]): 6
Plant response rating, Blackgrass (blackgrass; [7]): 5
Blackgrass plant response rating (0 to 10 scale) (blackgrass; Preemergence, Rate 125 g/ha): 9
Blackgrass plant response rating (blackgrass; Preemergence, Rate 250 g/ha): 10
Blackgrass plant response rating (blackgrass; Preemergence, Rate 500 g/ha): 10
Blackgrass plant response rating (blackgrass; Rate 62 g/ha, Postemergence): 2
Plant response rating, Blackgrass (blackgrass; [8]): 8
Plant response rating, S. Flatsedge (0 to 10 scale, 0 is no effect, 10 is complete control) (smallflower flatsedge; [1]): 0
S. Flatsedge plant response rating (0 to 10 scale, 0 is no effect, 10 is complete control) (smallflower flatsedge; [2]): 0
S. Flatsedge plant response rating (smallflower flatsedge; [3]): 0
S. Flatsedge plant response rating (smallflower flatsedge; [4]): 3
Plant response rating, Wild oats (wild oat; [5]): 0
Plant response rating, Wild oats (wild oat; [6]): 3
Plant response rating, Wild oats (wild oat; [7]): 0
Wild oats plant response rating (0 to 10 scale) (wild oat; Preemergence, Rate 125 g/ha): 3
Wild oats plant response rating (wild oat; Preemergence, Rate 250 g/ha): 3
Wild oats plant response rating (wild oat; Preemergence, Rate 500 g/ha): 6
Wild oats plant response rating (wild oat; Rate 62 g/ha, Postemergence): 0
Plant response rating, Wild oats (wild oat; [8]): 4

— patent US6737383B1, “Herbicidal oxadiazolidines” (priority 1999, dated 2004)
